Where a name gives a salt, the structure may show the parent alone.
Test system: patients with lower urinary tract symptoms
Assay: Clinical test (12 week study) to patients suffering from lower urinary tract symptoms: pain scores
Type: in vivo
Method: Clinical Test (12 Week Study) to Patients Suffering from Lower Urinary Tract Symptoms A clinical study was conducted in patients with lower urinary tract symptoms under the conditions shown below. Subjects: Eighteen patients diagnosed to have urinary dysfunction without accompanying obvious organic or neurological abnormality in lower urinary tract. Study drug and the method of administration: Until Week 4, capsules each containing 0.2 mg tamsulosin hydrochloride were orally administered, one capsule/time/day, after breakfast. In Week 4, the doses for later than Week 4 were determined by referring to the Table below, and the doses determined were orally administered once daily after breakfast. <Criterion of Dose after 4 Weeks> [table] Study period: 12 weeks Observed items: Evaluations and measurements were made for the following items before and after the administration. (2) Pains The pain scores shown below were evaluated before administration, and 4 and 12 weeks after administration. <1> Hypogastric/perineal pain “How strong is hypogastric/perineal pain?” • 0: No pain • 1: Slightly painful • 2: Painful • 3: Quite painful • 4: Very painful <2> Lower backache “How strong is lower backache?” • 0: No pain • 1: Slightly painful • 2: Painful • 3: Quite painful • 4: Very painful

SMILES: CCOc1ccccc1OCCN[C@H](C)Cc1ccc(OC)c(S(N)(=O)=O)c1 [tamsulosin hydrochloride, (R)(−)-5-[2-[[2-(o-ethoxyphenoxy)ethyl]amino]propyl]-2-methoxybenzenesulfonamide]
- improvement of hypogastric/perineal pain or lower backache in patients with urinary dysfunction (overall conclusion) (12 week clinical study, 18 patients, oral 0.2 or 0.4 mg/day): effective
- number of patients with hypogastric/perineal pain improved to score 0 (no pain) (of 7 patients with score 1 (slightly painful) before administration, evaluation in Weeks 4 and 12, oral 0.2 or 0.4 mg/day once daily after breakfast): 6 patients
- number of patients with hypogastric/perineal pain unchanged (score 1, slightly painful) (of 7 patients with score 1 before administration, evaluation in Weeks 4 and 12, oral 0.2 or 0.4 mg/day): 1 patient
- lower backache score after administration (the only 1 patient with lower backache (score 1, slightly painful) before administration, evaluation in Weeks 4 and 12, oral 0.2 or 0.4 mg/day): improved to score 0 (no pain)

— patent US20060063842A1, “Hypogastric and/or perineal pain-relieving agent” (priority 2002, published 2006)
